# Columns and labels:
# [1] = tested on: volume of edema of left hind paw (carrageenin); experiment: Test on anti-inflammatory activity (carrageenin hind paw edema); format: in vivo, Wistar male rats; details: Rattus norvegicus, po, 3 h, p.o., read-out: Percent inhibition (average value ± standard error)
# Protocol: In each group, the volumes of the left hind paw were measured by a volume differential meter (made by Ugo Basile Company), and 0.1 ml of a 1% suspension of carrageenin in distilled water was subcutaneously injected into the plantar tissues of the left hind paw. One hour later, each of the test compounds was suspended in the same vehicle as used in the test on analgesic activity and administered orally to the rats. Three hours later, the volumes of the left hind paw were again measured. The increase in volume of the left hind paw of each rat in each group (the volume of edema) was measured. The percent edema inhibition on the group administered with the test compounds based on the control group administered only with the vehicle was calculated in accordance with the following equation, and the results are shown in Table 2. [formula]
# [2] = tested on: number of writhings (0.6% acetic acid, intraperitoneal); experiment: Test on analgesic activity (acetic acid-induced writhing); format: in vivo, mice (ddY, male); details: Mus musculus, po, mice; parentheses = 95% confidence limits
# Protocol: Male mice (ddY) with a body weight of 18 to 22 g were used in groups each consisting of 10 mice. Each of the compounds was suspended in an aqueous solution of 0.5% of carboxymethyl cellulose and 2.0% of Tween 80, and the resulting suspension was administered orally to the mice through a tube. One hour after the administration, 0.6% acetic acid was administered intraperitoneally in an amount of 0.1 ml per 10 g of body weight, and the number of writhings which occurred in the mice during a period of 20 minutes after the administration was measured. The percent inhibition on a group administered with the test compound based on the control group administered only with the vehicle was calculated from the following equation, and the ED50 values of the test compounds were calculated from the percent inhibition in accordance with the method of Litchfield-Wilcoxon. [formula]
# The parenthesized numerals show 95% confidence limits.
# in vivo = details: rat, in vivo, po
# Description: (§1) Each of the test compounds was suspended in a physiological saline solution having dissolved therein 2% of Tween 80, and orally administered through a tube to groups of SD male and female rats (male: 130 to 150 g, female: 120 to 140 g) each group consisting of 8 rats. The rats were then observed for 2 weeks.
# SD male and female rats = experiment: in vivo; details: oral
# Description: as §1
Structure (SMILES),inhibition in vivo at 30 mg/kg [1] [%],inhibition in vivo at 90 mg/kg [1] [%],ED50 [2] [mg/kg],also measured
"CN1Cc2ccccc2C(=O)c2cc(CC(=O)O)cc(Cl)c21 [G, 5,6-dihydro-4-chloro-5-methyl-11-oxodibenz[b,e]azepine-2-acetic acid]",23.8 ± 6.9,35.4 ± 5.5,–,–
"CC(C(=O)O)c1ccc2c(c1)C(=O)c1ccccc1CN2C (centres unmarked) [B, 2-(5,6-dihydro-5-methyl-11-oxodibenz[b,e]azepin-2-yl)propionic acid]",23.2 ± 3.2,38.6 ± 5.3,26,–
"CN1Cc2ccccc2C(=O)c2c(CC(=O)O)cccc21 [C, 5,6-dihydro-5-methyl-11-oxodibenz[b,e]azepine-1-acetic acid]",–,11.4 ± 12.7,–,inhibition in vivo at 180 mg/kg ([1]; 180 mg/kg): 28.6 ± 8.3%
"CN1Cc2ccccc2C(=O)c2cc(CC(=O)O)ccc21 [A, 5,6-dihydro-5-methyl-11-oxodibenz[b,e]azepine-2-acetic acid]",30.4 ± 4.4,43.9 ± 6.6,9,inhibition in vivo at 10 mg/kg [1]: 28.5 ± 2.8%
"CCCCC1C(=O)N(c2ccccc2)N(c2ccccc2)C1=O [Phenylbutazone, phenylbutazone, reference compound]",20.7 ± 2.4,34.2 ± 5.3,130,–
"CN1Cc2ccccc2C(=O)c2ccc(CC(=O)O)cc21 [Compound D, 5,6-dihydro-5-methyl-11-oxodibenz[b,e]azepine-3-acetic acid]",36.4 ± 11.9,–,78,inhibition in vivo at 10 mg/kg [1]: 26.8 ± 2.9%
"CCCN1Cc2ccccc2C(=O)c2cc(CC(=O)O)ccc21 [J, 5,6-dihydro-5-n-propyl-11-oxodibenz[b,e]azepine-2-acetic acid]",18.6 ± 5.2,30.4 ± 4.8,15.5,–
"CN1Cc2ccccc2C(=O)c2cc(CC(=O)OCCO)ccc21 [K, hydroxyethyl 5,6-dihydro-5-methyl-11-oxodibenz[b,e]azepine-2-acetate]",23.5 ± 11.1,30.4 ± 5.5,–,–
"COC(=O)Cc1ccc2c(c1)C(=O)c1ccccc1CN2C [F, methyl 5,6-dihydro-5-methyl-11-oxodibenz[b,e]azepine-2-acetate]",11.8 ± 3.4,–,–,–
"CN1Cc2ccccc2C(=O)c2cc(CC(=O)OCC3COC(C)(C)O3)ccc21 (centres unmarked) [L, 2,2-dimethyl-1,3-dioxolan-5-yl methyl 5,6-dihydro-5-methyl-11-oxodibenz[b,e]azepine-2-acetate]",17.6 ± 5.1,33.3 ± 4,–,–
"CN1Cc2cc(Cl)ccc2C(=O)c2cc(CC(=O)O)ccc21 [H, 5,6-dihydro-5-methyl-8-chloro-11-oxodibenz[b,e]azepine-2-acetic acid]",26.8 ± 7.3,34.9 ± 6.5,–,–
"O=C(O)Cc1ccc2c(c1)C(=O)c1ccccc1CN2 [M, 5,6-dihydro-11-oxodibenz[b,e]azepine-2-acetic acid]",41.2 ± 5.4,–,5.1,LD50 at 336 h (in vivo; female): 840 mg/kg; LD50 at 336 h (in vivo; male): 810 mg/kg; Minimum lethal dose (SD male and female rats; female): 720 mg/kg; Minimum lethal dose (SD male and female rats; male): 720 mg/kg; inhibition in vivo at 10 mg/kg [1]: 37.3 ± 2.4%
"CNC(=O)Cc1ccc2c(c1)C(=O)c1ccccc1CN2C [Compound E, 5,6-dihydro-5-methyl-11-oxodibenz[b,e]azepine-2-acetic acid methyl amide]",11.3 ± 4.3,44.8 ± 7.5,46.5,–
"CCN1Cc2ccccc2C(=O)c2cc(CC(=O)O)ccc21 [I, 5,6-dihydro-5-ethyl-11-oxodibenz[b,e]azepine-2-acetic acid]",25.6 ± 5.8,35.1 ± 8.2,15.9,inhibition in vivo at 10 mg/kg [1]: 20.2 ± 6.6%

# Reference: patent US4230703A, “11-Oxodibenz(b,e)azepines” (priority 1977, dated 1980)
